{"source": "patent US20240238237A1", "about": "“CONJUGATED LINOLEIC ACID SUPPLEMENTATION FOR DISEASE TREATMENT” (VIRGINIA TECH INTELLECTUAL PROPERTIES, INC., priority 2021, published 2024)", "format_in_all_cases": "in vivo, mouse", "key": {"[1]": {"test_system": "WT, PWS (Snord116m+/p−) and PWS-KO (Snord116m−/p−) mice", "experiment": "Fasting glucose and glucose tolerance test", "conditions": "all genotypes, after 12 weeks diet, vs control diet", "method": "Mice were food-deprived for 12-15 h during the dark cycle in a cage devoid of bedding material. For the fasting measurement, the tail was snipped (1-2 mm), and blood was collected directly on Care Touch glucose test strips and directly measured using a Care Touch blood glucose monitor (Future Diagnostics USA, Brooklyn, NY, USA). Glucose (pharmaceutical grade dextrose, 2 g/kg in PBS, sterile) was injected intraperitoneally (IP) and tail blood samples were obtained at 15, 30, 60, 90, and 120 min following the injection. Area under the curve was calculated using the formula (((([fasting glucose×7.5]+[15 min glucose×15)+[30 min glucose×22.5])+[60 min glucose×30])+[90 min glucose×30])+[120 min glucose×15])."}, "[2]": {"test_system": "WT, PWS (Snord116m+/p−) and PWS-KO (Snord116m−/p−) mice", "experiment": "Elevated plus maze anxiety-like behavior, Example 1", "conditions": "pre- and post-intervention; genotype, treatment or interaction", "method": "A plus-shaped elevated plus apparatus with two open and two closed arms was constructed using measurements obtained from a commercial apparatus. This elevated plus maze was used for anxiety-like behavior analysis. The maze was cleaned with 70% ethanol before and after the procedure for each mouse and allowed to fully dry between mice. Mice were placed in the center/cross-arms and allowed to freely explore the maze for 5 min while the duration and frequency of entries into open and closed arms was recorded. Animals that enter the open arms more frequently are considered to display less overall anxiety-like behavior than those that stay in the closed arms."}, "[3]": {"test_system": "testes of N2KO and WT mice", "experiment": "Testicular histology (H&E), Example 3", "description": "At the end of the study, numerous body tissues were taken during necropsy, including testes. […] There appeared to be no effect in WT mice.\nAt the end of the 12-week feeding study with supplemental CLA, mice were euthanized and necropsied. Testicular tissue was removed from the abdominal cavity and placed in 4% paraformaldehyde overnight. The next day, tissue was dehydrated in 70% ethanol and stored at 4 degrees C. until further processing, which included embedding, sectioning and H&E staining."}, "[4]": {"test_system": "WT, PWS (Snord116m+/p−) and PWS-KO (Snord116m−/p−) mice", "experiment": "Indirect calorimetry and home-cage activity (TSE system)", "conditions": "end of study, TSE metabolic chamber", "method": "Indirect calorimetry and locomotor activity measurements were performed using a Labmaster Mouse calorimetry and Locomotor system (TSE Systems, Bad Homburg, Germany) in the Metabolism Core Virginia Tech. VO2 consumption and VCO2 production in individual mice were measured using metabolic chambers. Air going into the TSE system was at 20.9% oxygen, 0.05% CO2, and the airflow rate was 0.4 L/min (Airgas, Christiansburg, VA, USA). Data were collected every 15 min. Body composition was measured, as described above, prior to assessment of the animals using the TSE system. A photobeam-based ac-tivity monitoring system detected and recorded ambulatory movements. The results were used to calculate the respiratory exchange ratio (RER) and total energy expenditure/gram lean mass. Energy expenditure (KJ/h) was calculated using the formula VO2×(3.815+(1.232×RER))×4.1868 and normalized to the lean mass determined by NMR. All parameters were measured continuously and simultaneously for 48 h after approximately 20 h of adaptation for single-housed mice. The average values for the last 24-48 h were used for analysis. To calculate hourly activity, the average of two-hour bins of activity from the last 24 h period was plotted. […]"}, "[5]": {"test_system": "C57Bl/6 WT and PWS mice; 129v/J WT and Nhlh2 KO mice", "experiment": "Elevated plus maze anxiety symptoms, Example 2", "method": "Mice were tested, using a pre-post design and an elevated plus maze for anxiety symptoms FIG. 16A. Mice that are anxious generally will spend less time in the open arms, compared to those without anxiety. PWS patients show a number of neurobehavioural traits with the most commonly diagnosed phenotype being anxiety. In this study mice were placed in the middle of a plus-type maze, and entrance, as well as time spent in open or closed arms over a 5 minute period were tested. Mice were tested only once before entering the 12-week feeding stud, and once at the end of the 12-week feeding study. The percent time is reported. The data shown in FIG. 16B-16C show a comparison between pre-week test results, and the two treatment groups for each genotype in the post-week test. As shown in FIGS. 16B and 16C, the percent time in open arms was less for all animals. […] These findings can be translated to treatment of humans with anxiety."}, "[6]": {"test_system": "WT, PWS (Snord116m+/p−) and PWS-KO (Snord116m−/p−) mice", "experiment": "Rotarod analysis, Example 1", "conditions": "end of study", "method": "For rotarod analysis, animals were tested using a Columbus Instruments (Columbus, OH, USA) Economex Rota-Rod apparatus. All mice in the study were given four trials each day during the day (between 11 a.m. and 1 p.m.) for four consecutive days from 0 rpm to a maximum speed of 20 rpm, with an acceleration slope of 2.65%. Animals were tested for a maximum of 5 min of running per test, or until the animals fell off the device. The Economex Rota-Rod apparatus is equipped with a pressure-sensitive landing area so that the time spent on the rotating rod is automatically recorded when the animal falls.\nThe procedure has been previously described. Animals were given between 10 and 15 min of rest in between trials. Note that there are four days of testing, with each day consisting of four trials. The initial trials on Day 1 use a lane where Applicant placed non-slip bathroom tape to provide a stable environment for the animal to learn the procedure. The non-taped lanes were used for Days 2-4. Days 2-3 serve as acclimation days. Day 4 data were used for analysis."}}, "note": "“Also recorded” adds a separate entry of the source.", "data": [{"substance": "conjugated linoleic acid [CLA]", "values": [{"measurement": "Fasting glucose", "setting": "[1]", "value": "significantly higher; also recorded: significantly increased fasting glucose"}, {"measurement": "Time in open arms, elevated plus", "setting": "[2]", "value": "no differences"}, {"measurement": "Testicular morphology, WT mice", "setting": "[3]; 12 weeks CLA diet", "value": "no effect; also recorded: normal testicular morphology"}, {"measurement": "Testicular morphology, N2KO mice", "setting": "[3]; 12 weeks CLA diet vs control diet", "value": "improved testicular morphology"}, {"measurement": "Sperm in N2KO mice fed the CLA diet", "setting": "[3]; N2KO, histology", "value": "apparent presence of sperm in the epididymis"}, {"measurement": "Testis size", "setting": "[3]; effect of diet", "value": "not influenced"}, {"measurement": "Home-cage activity", "setting": "[4]", "value": "not significant"}, {"measurement": "Percent time in open arms, 129v/J WT and Nhlh2 KO mice", "setting": "[5]; 12 weeks CLA vs control diet", "value": "highly significant improvement"}, {"measurement": "Percent time in open arms, PWS mice", "setting": "[5]; C57Bl/6 PWS mice, post-week", "value": "numeric improvement"}, {"measurement": "Rotarod ability", "setting": "[6]", "value": "not affected"}]}]}
